Results reported in patent US8895733B2 (Novartis AG, priority 2010, dated 2014).
pIC50: −log10 of the molar value.

molecular target: T1, Nav 1.7 (Homo sapiens, UniProt Q15858); test: Whole-cell voltage clamp electrophysiology, automated patch clamp (marker c in Table of Examples); type: cell-based; settings: marker c = Automated patch clamp data; read-out: Nav 1.7 activity
T1 construct: expressed in transfected cells
How it was run: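 Human NaV1.7 currents were recorded by whole-cell automated patch clamp, on IonWorks Quattro or another automated platform, typically in perforated-patch configuration. The stimulus protocol was designed to probe block mainly of the inactivated state, with a typical sweep stepping from about −65 mV holding to −10 mV, then −100 mV.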

T1 sequence (Q15858 whole entry): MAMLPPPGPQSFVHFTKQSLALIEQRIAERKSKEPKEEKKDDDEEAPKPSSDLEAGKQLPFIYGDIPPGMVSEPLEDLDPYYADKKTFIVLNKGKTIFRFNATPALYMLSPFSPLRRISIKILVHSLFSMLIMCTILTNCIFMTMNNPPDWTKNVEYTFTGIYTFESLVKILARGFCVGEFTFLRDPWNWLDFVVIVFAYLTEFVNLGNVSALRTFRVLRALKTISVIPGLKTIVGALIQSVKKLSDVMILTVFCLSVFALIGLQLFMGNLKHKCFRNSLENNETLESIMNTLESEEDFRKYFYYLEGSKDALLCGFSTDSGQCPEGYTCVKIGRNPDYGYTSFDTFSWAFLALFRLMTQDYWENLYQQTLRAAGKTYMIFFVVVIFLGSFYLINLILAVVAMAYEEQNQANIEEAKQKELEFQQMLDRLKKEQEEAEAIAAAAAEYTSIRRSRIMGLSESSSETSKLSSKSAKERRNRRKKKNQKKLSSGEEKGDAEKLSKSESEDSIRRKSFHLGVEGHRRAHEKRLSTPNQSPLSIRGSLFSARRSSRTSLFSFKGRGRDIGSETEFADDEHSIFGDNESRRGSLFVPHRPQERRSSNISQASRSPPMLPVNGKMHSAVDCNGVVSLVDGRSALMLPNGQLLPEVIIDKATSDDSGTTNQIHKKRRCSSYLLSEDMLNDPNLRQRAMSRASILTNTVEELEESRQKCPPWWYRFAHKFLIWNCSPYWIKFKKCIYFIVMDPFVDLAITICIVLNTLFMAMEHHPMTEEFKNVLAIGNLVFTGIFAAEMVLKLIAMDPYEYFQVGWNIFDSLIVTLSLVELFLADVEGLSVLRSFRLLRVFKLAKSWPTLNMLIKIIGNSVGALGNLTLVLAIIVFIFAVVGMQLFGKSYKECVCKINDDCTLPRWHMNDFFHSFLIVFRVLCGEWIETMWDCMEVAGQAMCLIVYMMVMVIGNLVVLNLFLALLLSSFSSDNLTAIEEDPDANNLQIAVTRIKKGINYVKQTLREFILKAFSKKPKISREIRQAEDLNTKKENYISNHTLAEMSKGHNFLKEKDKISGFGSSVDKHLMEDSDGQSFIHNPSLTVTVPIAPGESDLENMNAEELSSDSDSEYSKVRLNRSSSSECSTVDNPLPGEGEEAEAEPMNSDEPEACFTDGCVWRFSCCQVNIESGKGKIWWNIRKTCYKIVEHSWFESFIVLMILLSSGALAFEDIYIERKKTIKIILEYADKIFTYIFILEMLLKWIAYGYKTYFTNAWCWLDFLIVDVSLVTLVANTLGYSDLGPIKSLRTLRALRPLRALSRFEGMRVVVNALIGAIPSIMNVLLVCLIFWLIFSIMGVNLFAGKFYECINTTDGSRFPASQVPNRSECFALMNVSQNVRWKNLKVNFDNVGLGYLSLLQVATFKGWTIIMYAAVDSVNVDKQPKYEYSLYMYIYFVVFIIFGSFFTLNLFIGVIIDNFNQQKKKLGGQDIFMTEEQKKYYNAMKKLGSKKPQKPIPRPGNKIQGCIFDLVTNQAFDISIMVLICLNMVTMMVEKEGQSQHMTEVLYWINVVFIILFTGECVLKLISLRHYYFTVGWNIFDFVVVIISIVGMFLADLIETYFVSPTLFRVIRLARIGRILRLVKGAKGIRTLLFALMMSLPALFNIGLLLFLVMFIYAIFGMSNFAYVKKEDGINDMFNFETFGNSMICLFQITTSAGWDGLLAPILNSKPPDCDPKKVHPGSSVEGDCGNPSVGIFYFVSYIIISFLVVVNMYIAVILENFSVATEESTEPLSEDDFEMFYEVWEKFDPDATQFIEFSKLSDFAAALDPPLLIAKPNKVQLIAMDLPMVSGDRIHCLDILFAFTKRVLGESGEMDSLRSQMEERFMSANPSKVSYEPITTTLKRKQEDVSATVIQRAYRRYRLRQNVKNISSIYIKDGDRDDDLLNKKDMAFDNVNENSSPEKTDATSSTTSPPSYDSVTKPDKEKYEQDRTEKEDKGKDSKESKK

Compound | pIC50
CN(c1ccccc1)c1nc(N)nc(-c2noc(-c3ccc(NC4CCOC4)nc3)n2)n1 (stereo not drawn) [Example 328, 2-N-methyl-6-(5-{6-[(oxolan-3-yl)amino]pyridin-3-yl}-1,2,4-oxadiazol-3-yl)-2-N-phenyl-1,3,5-triazine-2,4-diamine] | 5.10
CN(c1ccccc1)c1nc(N)nc(-c2noc(-c3ccc(OCC#N)nc3)n2)n1 [Example 330, 2-{[5-(3-{4-Amino-6-[methyl(phenyl)amino]-1,3,5-triazin-2-yl}-1,2,4-oxadiazol-5-yl)pyridin-2-yl]oxy}acetonitrile] | 5.04
CN(c1ccccc1)c1nc(N)nc(-c2noc(-c3ccc(OC4CCC4)nc3)n2)n1 [Example 331, 6-[5-(6-cyclobutoxypyridin-3-yl)-1,2,4-oxadiazol-3-yl]-2-N-methyl-2-N-phenyl-1,3,5-triazine-2,4-diamine] | 6.85
CN(c1ccccc1)c1nc(N)nc(-c2noc(-c3ccc(=O)[nH]c3)n2)n1 [Example 334, 5-(3-{4-amino-6-[methyl(phenyl)amino]-1,3,5-triazin-2-yl}-1,2,4-oxadiazol-5-yl)-1,2-dihydropyridin-2-one] | 5.07
CN(c1ccccc1)c1nc(N)nc(-c2noc(N[C@H]3CC[C@H](OCC(F)(F)F)CC3)n2)n1 [Example 337] | 5.11
Cc1cnc(-c2nc(-c3nc(N)nc(N(C)c4ccccc4)n3)no2)s1 [Example 342] | 5.69
CN1CCN(C(=O)c2nc(-c3nc(N)nc(N(C)c4ccccc4)n3)no2)CC1 [Example 344, 2-N-methyl-6-{5-[(4-methylpiperazin-1-yl)carbonyl]-1,2,4-oxadiazol-3-yl}-2-N-phenyl-1,3,5-triazine-2,4-diamine] | 5.24

More lines, now with the values ahead:

pIC50 | Compound
6.05 | COCCOc1ccc(-c2nc(-c3nc(N)nc(N(C)c4ccccc4)n3)no2)cn1 [Example 329, 6-{5-[6-(2-methoxyethoxy)pyridin-3-yl]-1,2,4-oxadiazol-3-yl}-2-N-methyl-2-N-phenyl-1,3,5-triazine-2,4-diamine]
5.96 | CC(C)Nc1ccc(-c2nc(-c3nc(N)nc(N(C)c4ccccc4)n3)no2)cn1 [Example 332, 2-N-Methyl-2-N-phenyl-6-(5-{6-[(propan-2-yl)amino]pyridin-3-yl}-1,2,4-oxadiazol-3-yl)-1,3,5-triazine-2,4-diamine]
6.90 | CN(c1ccccc1)c1nc(N)nc(-c2noc(-c3ccc(NCC4CC4)nc3)n2)n1 [Example 333, 6-(5-{6-[(cyclopropylmethyl)amino]pyridin-3-yl}-1,2,4-oxadiazol-3-yl)-2-N-methyl-2-N-phenyl-1,3,5-triazine-2,4-diamine]
6.59 | CN(c1ccccc1)c1nc(N)nc(-c2noc(N3CCC(Oc4ccccc4)CC3)n2)n1 [Example 336, 2-N-methyl-6-[5-(4-phenoxypiperidin-1-yl)-1,2,4-oxadiazol-3-yl]-2-N-phenyl-1,3,5-triazine-2,4-diamine]
6.22 | CN(c1ccccc1)c1nc(N)nc(-c2noc(N3CCC(OCc4ccccc4)CC3)n2)n1 [Example 338, 6-{5-[4-(benzyloxy)piperidin-1-yl]-1,2,4-oxadiazol-3-yl}-2-N-methyl-2-N-phenyl-1,3,5-triazine-2,4-diamine]
6.97 | CN(c1ccccc1)c1nc(N)nc(-c2noc(-c3ccc4c(c3)CCO4)n2)n1 [Example 339, 6-[5-(2,3-dihydro-1-benzofuran-5-yl)-1,2,4-oxadiazol-3-yl]-2-N-methyl-2-N-phenyl-1,3,5-triazine-2,4-diamine]
6.09 | CN(c1ccccc1)c1nc(N)nc(-c2noc(-c3ccc(OCC(F)(F)F)cn3)n2)n1 [Example 340, 2-N-methyl-2-N-phenyl-6-{5-[5-(2,2,2-trifluoroethoxy)pyridin-2-yl]-1,2,4-oxadiazol-3-yl}-1,3,5-triazine-2,4-diamine]
6.71 | Nc1nc(Nc2cc(F)ccc2F)nc(-c2noc(-c3ccc(OCC(F)(F)F)nc3)n2)n1 [Example 343, 2-N-(2,5-difluorophenyl)-6-{5-[6-(2,2,2-trifluoroethoxy)pyridin-3-yl]-1,2,4-oxadiazol-3-yl}-1,3,5-triazine-2,4-diamine]
